Laboratory results taken from patent US10189840B2, “Substituted tricyclic heterocyclic compounds” (BRISTOL-MYERS SQUIBB COMPANY, priority 2015, dated 2019).

biological target: TNFα (Homo sapiens (Human), UniProt P01375); test: TNF induced HEK-Blue assay; assay type: cell-based; conditions: TNFα 0.5 ng/ml; HEK-Blue-CD40L cells, NF-κB-driven secreted alkaline phosphatase reporter; 18 h
Procedure: Test compounds serially diluted in DMSO were plated in an assay plate (Labcyte, Cat. #LP-0200) at final concentrations ranging from 0.004 μM to 25 μM. TNFα (final concentration 0.5 ng/ml) or CD40L (final concentration 30 ng/ml) in assay buffer [DMEM, 4.5 g/l glucose (Gibco, Cat. 21063-029), 10% FBS (Sigma, F4135), 1% Penicillin-Streptomycin (Gibco, Cat. 15140-122), 1% Anti-Anti (Gibco, Cat. 15240-112) and 2 mM L-glutamine (Gibco, Cat. 25030-081)] was then added to the assay plate. After a 30 minute pre-incubation at 37° C. and 5% CO2, HEK-Blue-CD40L cells (InvivoGen, Cat. Code hkb-cd40) containing a NF-κB-driven secreted alkaline phosphatase reporter gene were seeded into the assay plate at a density of 20,000 cells per well. This plate was then incubated for 18 h at 37° C. and 5% CO2. Secreted alkaline phosphatase expression was measured using QUANTI-Blue (InvivoGen, Cat. Code rep-qb1) according to manufacturer's specifications and the assay plate was read on a PerkinElmer Envision at 620 nm.
Inhibition data for the test compound over a range of concentrations was plotted as percentage inhibition of the test compound (100%=maximum inhibition). IC50 values were determined after correcting for background [(sample read−mean of low control)/(mean of high control−mean of low control)] where by the low control is DMSO without stimulation and high control is DMSO with stimulation. The IC50 is defined as the concentration of test compound which produces 50% inhibition and was quantified using the 4 parameter logistic equation to fit the data.
Table 5 lists the IC50 values measured in the TNF induced HEK-Blue assay for Examples 1 to 40 of this invention.

TNFα, sequence (P01375 77-233): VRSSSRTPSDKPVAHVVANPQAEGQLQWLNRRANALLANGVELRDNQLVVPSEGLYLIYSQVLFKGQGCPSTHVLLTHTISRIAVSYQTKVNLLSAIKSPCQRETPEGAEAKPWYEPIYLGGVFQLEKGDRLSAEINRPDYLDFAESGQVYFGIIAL

First: Cc1ccc(C)c([C@H]2CCc3nc4ccc(-c5cnc(C(C)(C)O)nc5)nc4n32)c1 [Example 36, (R)-2-(5-(8-(2,5-Dimethylphenyl)-7,8-dihydro-6H-pyrrolo[2′,1′:2,3]imidazo[4,5-b]pyridin-2-yl)pyrimidin-2-yl)propan-2-ol]
Second: COc1ccc(-c2ccc3nc4n(c3n2)[C@@H](c2cc(C)ccc2C)CC4)cn1 [Example 39, (R)-8-(2,5-dimethylphenyl)-2-(6-methoxypyridin-3-yl)-7,8-dihydro-6H-pyrrolo[2′,1′:2,3]imidazo[4,5-b]pyridine]
The IC50 of the first is lower: < 1 µM for the first, 1 to 10 µM for the second.

First: CC(C)(O)c1ccc(-c2ccc3nc4n(c3n2)C(c2ccccc2OC(F)(F)F)CC4F)cc1 (single isomer, unassigned) [Example 22 (e2), 2-(4-(6-fluoro-8-(2-(trifluoromethoxy)phenyl)-7,8-dihydro-6H-pyrrolo[2′,1′:2,3]imidazo[4,5-b]pyridin-2-yl)phenyl)propan-2-ol]
Second: CC(C)(O)c1ccc(-c2ccc3nc4n(c3n2)C(c2ccccc2OC(F)F)CC4F)cc1 (stereo not shown) [Example 15 (e4), 2-(4-(8-(2-(difluoromethoxy)phenyl)-6-fluoro-7,8-dihydro-6H-pyrrolo[2′,1′:2,3]imidazo[4,5-b]pyridin-2-yl)phenyl)propan-2-ol]
The IC50 of the first is lower: 1 to 10 µM for the first, 10 to 25 µM for the second. The first is the more potent here.

First: CC(C)(O)c1ccc(-c2ccc3nc4n(c3n2)C(c2ccccc2C(F)(F)F)CC4)cc1 (single isomer, unassigned) [Example 25 (e2), 2-(4-(8-(2-(Trifluoromethyl)phenyl)-7,8-dihydro-6H-pyrrolo[2′,1′:2,3]imidazo[4,5-b]pyridin-2-yl)phenyl)propan-2-ol]
Second: CC(C)(O)c1ccc(-c2ccc3nc4n(c3n2)C(c2cc(F)ccc2C(F)(F)F)CC4)cc1 (single isomer, unassigned) [Example 34 (e2), 2-(4-(8-(5-fluoro-2-(trifluoromethyl)phenyl)-7,8-dihydro-6H-pyrrolo[2′,1′:2,3]imidazo[4,5-b]pyridin-2-yl)phenyl)propan-2-ol]
The IC50 of the first is lower: < 1 µM for the first, 1 to 10 µM for the second.

First: CC(C)(O)c1ccc(-c2ccc3nc4n(c3n2)C(c2cc(F)ccc2C(F)(F)F)CC4O)cc1 (single isomer, unassigned) [Example 13 (e1), 8-(5-fluoro-2-(trifluoromethyl)phenyl)-2-(4-(2-hydroxypropan-2-yl)phenyl)-7,8-dihydro-6H-pyrrolo[2′,1′:2,3]imidazo[4,5-b]pyridin-6-ol]
Second: CC(C)(O)c1ccc(-c2ccc3nc4n(c3n2)C(c2cc(F)ccc2C(F)(F)F)CC4F)cc1 (single isomer, unassigned) [Example 24 (e1), 2-(4-(6-fluoro-8-(5-fluoro-2-(trifluoromethyl)phenyl)-7,8-dihydro-6H-yrrolo[2′,1′:2,3]imidazo[4,5-b]pyridin-2-yl)phenyl)propan-2-ol]
The IC50 of the first is lower: < 1 µM for the first, 1 to 10 µM for the second. The first is the more potent here.

`CC(C)(O)c1ccc(-c2ccc3nc4n(c3n2)C(c2ccccc2C2CC2)CC4O)cc1` (single isomer, unassigned) [Example 9 (e4), 8-(2-cyclopropylphenyl)-2-(4-(2-hydroxypropan-2-yl)phenyl)-7,8-dihydro-6H-pyrrolo[2′,1′:2,3]imidazo[4,5-b]pyridin-6-ol] and `COc1ccccc1C1CC(O)c2nc3ccc(-c4ccc(C(C)(C)O)cc4)nc3n21` (single isomer, unassigned) [Example 12 (e2), 2-(4-(2-hydroxypropan-2-yl)phenyl)-8-(2-methoxyphenyl)-7,8-dihydro-6H-pyrrolo[2′,1′:2,3]imidazo[4,5-b]pyridin-6-ol] fall in the same range of IC50: 1 to 10 µM for the first, 1 to 10 µM for the second.

`CC(C)(O)c1ncc(-c2ccc3nc4n(c3n2)C(c2ccccc2OC(F)F)CC4O)cn1` (stereo not shown) [Example 11 (e4), 8-(2-(difluoromethoxy)phenyl)-2-(2-(2-hydroxypropan-2-yl)pyrimidin-5-yl)-7,8-dihydro-6H-pyrrolo[2′,1′:2,3]imidazo[4,5-b]pyridin-6-ol] and `CC(C)(O)c1ccc(-c2ccc3nc4n(c3n2)C(c2ccccc2OC(F)F)CC4O)cc1` (single isomer, unassigned) [Example 2 (e3), 8-(2-(difluoromethoxy)phenyl)-2-(4-(2-hydroxypropan-2-yl)phenyl)-7,8-dihydro-6H-pyrrolo[2′,1′:2,3]imidazo[4,5-b]pyridin-6-ol] fall in the same range of IC50: 1 to 10 µM for the first, 1 to 10 µM for the second.

`CC(C)(O)c1ccc(-c2ccc3nc4n(c3n2)C(c2c(F)cccc2C(F)(F)F)CC4)cc1` (single isomer, unassigned) [Example 32 (e1), 2-(4-(8-(2-fluoro-6-(trifluoromethyl)phenyl)-7,8-dihydro-6H-pyrrolo[2′,1′:2,3]imidazo[4,5-b]pyridin-2-yl)phenyl)propan-2-ol] and `CC(C)(O)c1ccc(-c2ccc3nc4n(c3n2)C(c2ccccc2C(F)(F)F)CC4)cc1` (single isomer, unassigned) [Example 25 (e1), 2-(4-(8-(2-(Trifluoromethyl)phenyl)-7,8-dihydro-6H-pyrrolo[2′,1′:2,3]imidazo[4,5-b]pyridin-2-yl)phenyl)propan-2-ol] cannot be ordered by IC50: < 1 µM for the first, < 1 µM for the second.

`CC(C)(O)c1ccc(-c2ccc3nc4n(c3n2)C(c2ccccc2C(F)(F)F)CC4O)cc1` (single isomer, unassigned) [Example 1 (e1), 2-(4-(2-Hydroxypropan-2-yl)phenyl)-8-(2-(trifluoromethyl)phenyl)-7,8-dihydro-6H-pyrrolo[2′,1′:2,3]imidazo[4,5-b]pyridin-6-ol] and `CC(C)(O)c1ccc(-c2ccc3nc4n(c3n2)C(c2c(F)cccc2C(F)(F)F)CC4O)cc1` (single isomer, unassigned) [Example 3 (e3), 8-(2-fluoro-6-(trifluoromethyl)phenyl)-2-(4-(2-hydroxypropan-2-yl)phenyl)-7,8-dihydro-6H-pyrrolo[2′,1′:2,3]imidazo[4,5-b]pyridin-6-ol] cannot be ordered by IC50: < 1 µM for the first, < 1 µM for the second.

First: CC(C)(O)c1ccc(-c2ccc3nc4n(c3n2)C(c2cc(F)ccc2C(F)(F)F)CC4F)cc1 (stereo not shown) [Example 24 (DM), 2-(4-(6-fluoro-8-(5-fluoro-2-(trifluoromethyl)phenyl)-7,8-dihydro-6H-yrrolo[2′,1′:2,3]imidazo[4,5-b]pyridin-2-yl)phenyl)propan-2-ol]
Second: CC(C)(O)c1ccc(-c2ccc3nc4n(c3n2)C(c2ccccc2C(F)(F)F)CC4O)cc1 (single isomer, unassigned) [Example 1 (e4), 2-(4-(2-Hydroxypropan-2-yl)phenyl)-8-(2-(trifluoromethyl)phenyl)-7,8-dihydro-6H-pyrrolo[2′,1′:2,3]imidazo[4,5-b]pyridin-6-ol]
The IC50 of the first is lower: < 1 µM for the first, 1 to 10 µM for the second. The first is the more potent here.

First: CC(C)(O)c1ccc(-c2ccc3nc4n(c3n2)C(c2cc(F)ccc2C(F)(F)F)CC4F)cc1 (stereo not shown) [Example 24 (e3), 2-(4-(6-fluoro-8-(5-fluoro-2-(trifluoromethyl)phenyl)-7,8-dihydro-6H-yrrolo[2′,1′:2,3]imidazo[4,5-b]pyridin-2-yl)phenyl)propan-2-ol]
Second: CC(C)(O)c1ccc(-c2ccc3nc4n(c3n2)C(c2ccccc2OC(F)F)CC4F)cc1 (stereo not shown) [Example 15 (e1), 2-(4-(8-(2-(difluoromethoxy)phenyl)-6-fluoro-7,8-dihydro-6H-pyrrolo[2′,1′:2,3]imidazo[4,5-b]pyridin-2-yl)phenyl)propan-2-ol]
The IC50 of the first is higher: 1 to 10 µM for the first, < 1 µM for the second.

First: Cn1cc(-c2ccc3nc4n(c3n2)C(c2ccccc2OC(F)F)CC4)cn1 (racemic) [Example 30 (rac), 8-(2-(difluoromethoxy)phenyl)-2-(1-methyl-1H-pyrazol-4-yl)-7,8-dihydro-6H-pyrrolo[2′,1′:2,3]imidazo[4,5-b]pyridine]
Second: OC1CC(c2ccccc2OC(F)F)n2c1nc1ccc(-c3cnc(N4CCOCC4)nc3)nc12 (stereo not shown) [Example 10 (DM), 8-(2-(difluoromethoxy)phenyl)-2-(2-morpholinopyrimidin-5-yl)-7,8-dihydro-6H-pyrrolo[2′,1′:2,3]imidazo[4,5-b]pyridin-6-ol]
The IC50 of the first is higher: 1 to 10 µM for the first, < 1 µM for the second.

First: CC(C)(O)c1ccc(-c2ccc3nc4n(c3n2)C(c2cc(F)ccc2C(F)(F)F)CC4F)cc1 (single isomer, unassigned) [Example 24 (e2), 2-(4-(6-fluoro-8-(5-fluoro-2-(trifluoromethyl)phenyl)-7,8-dihydro-6H-yrrolo[2′,1′:2,3]imidazo[4,5-b]pyridin-2-yl)phenyl)propan-2-ol]
Second: CC(C)(O)c1ccc(-c2ccc3nc4n(c3n2)C(c2ccccc2OC(F)F)CC4F)cc1 (stereo not shown) [Example 15 (DM), 2-(4-(8-(2-(difluoromethoxy)phenyl)-6-fluoro-7,8-dihydro-6H-pyrrolo[2′,1′:2,3]imidazo[4,5-b]pyridin-2-yl)phenyl)propan-2-ol]
The IC50 of the first is higher: 1 to 10 µM for the first, < 1 µM for the second.

`CC(C)(O)c1ccc(-c2ccc3nc4n(c3n2)C(c2ccccc2C(F)(F)F)CC4)cc1` (racemic) [Example 25 (rac), 2-(4-(8-(2-(Trifluoromethyl)phenyl)-7,8-dihydro-6H-pyrrolo[2′,1′:2,3]imidazo[4,5-b]pyridin-2-yl)phenyl)propan-2-ol] was tested, and the IC50 was < 1 µM.
